Experimental data published in publication PMC7496872 (Chemmedchem, 2020).
pIC50: −log10 of the molar value. Blank lines part the entries; values can stand above or below the molecule they belong to.

Legend:
TLR2/1 = target: T1, TLR2/1 (Homo sapiens, UniProt O60603); assay: TLR2/1 (Pam3CSK4)-induced NF-κB/AP-1 SEAP reporter in HEK-Blue hTLR2 cells; assay type: cell-based; conditions: for pIC50 / TLR2-mediated NF-κB activation in primary screen, TLR2/1 (in words): Pam3CSK4 10 ng/mL; for pIC50: HEK-Blue hTLR2 cells, n=3, 95 % confidence interval in brackets; for Pam3CSK4-induced TLR2/1 response (remaining): compound at 50 μM, 1 h pre-incubation, Pam3CSK4 10 ng/mL 24 h; for TLR2-mediated NF-κB activation in primary screen, TLR2/1 (in words): Figure 3A
T1 construct: host or cells: HEK-Blue hTLR2 cells
T1 sequence (O60603 21-784): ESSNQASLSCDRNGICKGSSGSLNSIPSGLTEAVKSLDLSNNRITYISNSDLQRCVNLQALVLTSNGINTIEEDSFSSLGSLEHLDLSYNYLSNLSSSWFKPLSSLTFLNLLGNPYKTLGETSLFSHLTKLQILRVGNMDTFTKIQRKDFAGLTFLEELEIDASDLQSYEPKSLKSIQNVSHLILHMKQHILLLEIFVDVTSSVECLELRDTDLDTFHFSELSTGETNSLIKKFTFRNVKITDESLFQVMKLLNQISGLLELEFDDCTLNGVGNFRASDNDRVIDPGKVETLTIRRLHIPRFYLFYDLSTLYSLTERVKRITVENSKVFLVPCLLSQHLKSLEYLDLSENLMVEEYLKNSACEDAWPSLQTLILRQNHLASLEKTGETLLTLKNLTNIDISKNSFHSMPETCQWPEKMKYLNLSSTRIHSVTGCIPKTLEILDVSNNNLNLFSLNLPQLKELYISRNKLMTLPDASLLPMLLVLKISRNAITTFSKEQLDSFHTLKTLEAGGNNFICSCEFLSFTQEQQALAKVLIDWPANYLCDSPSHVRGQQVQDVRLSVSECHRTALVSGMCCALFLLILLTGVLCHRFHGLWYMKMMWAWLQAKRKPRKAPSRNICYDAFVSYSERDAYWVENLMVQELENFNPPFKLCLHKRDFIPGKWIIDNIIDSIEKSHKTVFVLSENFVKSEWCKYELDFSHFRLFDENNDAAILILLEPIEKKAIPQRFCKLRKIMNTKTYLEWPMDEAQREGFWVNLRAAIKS
Description: (§1) Figure 3 Inhibition of TLR2‐dependent NF‐κB activation and IL‐8 secretion. A) HEK‐Blue hTLR2 cells were pre‐incubated with CU‐CPT22 or compounds 1–6 and 9–11 for 1 h and then stimulated additionally with TLR2/1 agonist Pam3CSK4 (10 ng/mL) or TLR2/6 agonist Pam2CSK4 (1 ng/mL) for 24 h. B) HEK‐Blue hTLR2 cells were pre‐incubated with increasing concentrations of 4, 6, 9, 10 and then stimulated additionally with Pam3CSK4 or Pam2CSK4 for 24 h. Supernatants were tested for TLR2‐mediated NF‐κB/AP‐1 activity by quantification of SEAP release (OD640). C) THP‐1 macrophages were incubated with CU‐CPT22 (25 μM) or compound 6 for 1 h and afterwards stimulated with Pam3CSK4 (10 ng/mL), Pam2CSK4 (1ng/mL), LPS (10 ng/mL), flagellin (1 μg/mL), CL075 (8 μM) or ODN2006 (5 μM) for 24 h. Supernatants were analyzed for IL‐8 secretion by ELISA. Mean+SD or ±SD (n=3).
(§2) Cell culture: Human embryonic kidney (HEK)‐Blue hTLR2 cells (InvivoGen, Touluse, France) were used from passage 5 to 20. Stimulation of the cells with TLR2 agonists leads to production and secretion of NF‐κB‐inducible embryonic alkaline phosphatase (SEAP). The enzyme transforms the substrate QUANTI‐Blue (InvivoGen) into a blue dye that was detected by optical density (OD) at 640 nm as previously described.11a, 12 THP‐1 cells (DSMZ, Braunschweig, Germany) from passage 10 to 15 were cultured as previously reported.13 For the generation of THP‐1 macrophages, THP‐1 monocytes were first incubated with 25 ng/mL Phorbol 12‐myristate 13‐acetate (PMA, Sigma‐Aldrich) for 48 h and afterwards rested for 24 h. The cell lines were cultured at 37 °C in a humidified atmosphere of 5 % CO2 and 95 % air and were regularly tested negative for mycoplasma contamination (VenorGeM Classic Mycoplasma PCR detection kit, Minerva Biolabs, Berlin, Germany).
(§3) Cell stimulation: HEK‐Blue hTLR2 cells (4×10^4 cells/well) and THP‐1 macrophages (2×10^5 cells/well) were cultured in 96‐well plates and 24‐well plates (TPP, Trasadingen, Switzerland). After cells were washed with phosphate‐buffered saline (PBS, Sigma‐Aldrich), cell stimulation was done in OptiMEM (ThermoFisher Scientific). The tested compounds and CU‐CPT22 (50 mM) were dissolved in DMSO. Final DMSO concentrations in cell culture were below 0.2 % (v/v). […] For co‐stimulation of TLR2 agonists and tested modulators, cells were preincubated with the compounds or CU‐CPT22 for 1 h and afterwards stimulated with the agonists.
(§4) Statistical analysis: Data of the bar charts are shown as mean+SD. Potency (IC50) data are presented as mean with the confidence interval (95 %). Statistical analysis was done by using GraphPad Prism 6.0 (GraphPad software, San Diego, USA). Nonlinear regression was used to plot and analyze concentration‐response curves and to obtain IC50 values.

TLR2/6 = target: T2, TLR2/6 (Homo sapiens, UniProt O60603); assay: TLR2/6 (Pam2CSK4)-induced NF-κB/AP-1 SEAP reporter in HEK-Blue hTLR2 cells; assay type: cell-based; conditions: for pIC50 / TLR2-mediated NF-κB activation in primary screen, TLR2/6 (in words): Pam2CSK4 1 ng/mL; for pIC50: HEK-Blue hTLR2 cells, n=3, 95 % confidence interval in brackets; for Pam2CSK4-induced TLR2/6 response (remaining): compound at 50 μM, 1 h pre-incubation, Pam2CSK4 1 ng/mL 24 h; for TLR2-mediated NF-κB activation in primary screen, TLR2/6 (in words): Figure 3A
T2 construct: host or cells: HEK-Blue hTLR2 cells
T2 sequence (O60603 21-784): as above
Description: as §1, §2, §3, §4

[1] = Chemical stability toward oxidation; assay type: physicochemical; conditions: aerobic conditions; 7 and 8 on debenzylation of the protected intermediates
From the text: Aromatic ketone 5, in which the amide linker between two benzene rings is replaced by a ketomethylene unit, was obtained via the direct C‐acylation of resorcinol (1,3‐diphenol) with 3,4‐dimethoxy‐phenyl acetic acid using boron trifluoride diethyl etherate as the activating Lewis acid in 19 % yield. Compounds 1–6 were isolated with >95 % purity by column chromatography. Synthesis of the trihydroxy‐derivatives, ethyl 3‐(2,3,4‐trihydroxy‐benzamido)benzoate 7 and ethyl 3‐(3,4,5‐trihydroxy‐benzamido)benzoate 8 was attempted following the same strategy as in Scheme 2. […] 7 and 8 therefore could not be isolated and tested biologically.

HEK-Blue hTLR2 cells = assay: Cell viability by MTT assay; assay type: cell-based, human; conditions: 24 h
Description: Cell viability: Cell viability was assessed by the MTT assay in HEK Blue hTLR2 cells as previously described.14 10 % (v/v) DMSO (Carl Roth) served as control and the viability of untreated cells was defined as 100 %.
(§5) 1.1 Supplementary Figure 1: Agonistic activity and cell viability […]
up to 50 µM. (A) HEK-Blue hTLR2 cells were stimulated with Pam3CSK4 (10 ng/ml) or the compounds 1-9 for 24 h. SEAP production was detected by QUANTI-Blue as OD at 640 nm. (B) HEK-Blue hTLR2 cells were stimulated with DMSO (10% v/v) or the compounds for 24 h. Cell viability was determined by MTT assay and normalized to unstimulated cells (dashed line). Mean +SD (n=3).
(1 picture or pasted object on this page, not shown here)

TLR2 = target: T3, TLR2 (Homo sapiens, UniProt O60603); assay: Agonistic TLR2 activity, SEAP production in HEK-Blue hTLR2 cells; assay type: cell-based; conditions: compounds alone for 24 h, SEAP OD 640 nm
T3 construct: host or cells: HEK-Blue hTLR2 cells
T3 sequence (O60603 21-784): as above
Description: as §2, §5
up to 50 µM. (A) HEK-Blue hTLR2 cells were stimulated with Pam3CSK4 (10 ng/ml) or the compounds 1-9 for 24 h. SEAP production was detected by QUANTI-Blue as OD at 640 nm. (B) HEK-Blue hTLR2 cells were stimulated with DMSO (10% v/v) or the compounds for 24 h. Cell viability was determined by MTT assay and normalized to unstimulated cells (dashed line). Mean +SD (n=3). […]

other TLR subtypes = assay: IL-8 secretion (ELISA) in THP-1 macrophages stimulated with agonists of other TLRs; assay type: cell-based, human; conditions: LPS, flagellin, CL075 or ODN2006 for 24 h
Description: as §1, with “C) THP‐1 macrophages were incubated with CU‐CPT22 (25 μM) or compound 6 for 1 h and afterwards stimulated with Pam3CSK4 (10 ng/mL), Pam2CSK4 (1ng/mL), LPS (10 ng/mL), flagellin (1 μg/mL), CL075 (8 μM) or ODN2006 (5 μM) for 24 h.” left out, “Mean+SD or ±SD (n=3).” left out
Cell culture: Human embryonic kidney (HEK)‐Blue hTLR2 cells (InvivoGen, Touluse, France) were used from passage 5 to 20. […] The enzyme transforms the substrate QUANTI‐Blue (InvivoGen) into a blue dye that was detected by optical density (OD) at 640 nm as previously described.11a, 12 THP‐1 cells (DSMZ, Braunschweig, Germany) from passage 10 to 15 were cultured as previously reported.13 For the generation of THP‐1 macrophages, THP‐1 monocytes were first incubated with 25 ng/mL Phorbol 12‐myristate 13‐acetate (PMA, Sigma‐Aldrich) for 48 h and afterwards rested for 24 h. […]
ELISA: Commercially available ELISA kits were used for detecting human IL‐8 levels in cell culture supernatants (ELISA‐Ready Set Go, Invitrogen by Thermo Fisher Scientific).

SMILES: CCOC(=O)c1ccc(CC(=O)c2c(C)cc(O)cc2O)o1 [Compound 10]
pIC50 (TLR2/1): 4.36 | Pam3CSK4-induced TLR2/1 response (remaining) (TLR2/1): less than 40% | pIC50 (TLR2/6): 4.39 | Pam2CSK4-induced TLR2/6 response (remaining) (TLR2/6): less than 50%

SMILES: CCOC(=O)c1cccc(NC(=O)Cc2ccc(OC)c(OC)c2)c1 [Compound 4, Ethyl 3‐(2‐(3,4‐dimethoxyphenyl)acetamido)benzoate]
pIC50 (TLR2/1): 4.35 | Pam3CSK4-induced TLR2/1 response (remaining) (TLR2/1): less than 40% | pIC50 (TLR2/6): 4.21

SMILES: COC(=O)c1ccc(CC(=O)c2ccc(O)cc2O)o1 [Compound 9]
pIC50 (TLR2/1): 4.37 | Pam3CSK4-induced TLR2/1 response (remaining) (TLR2/1): less than 40% | pIC50 (TLR2/6): 4.37 | Pam2CSK4-induced TLR2/6 response (remaining) (TLR2/6): less than 50%

SMILES: CCCc1cc(C(=O)Cc2ccc(C(=O)OCC)o2)c(O)cc1O [Compound 11]
TLR2-mediated NF-κB activation in primary screen, TLR2/1 (in words) (TLR2/1): abrogated the TLR2 response of both heterodimers almost completely | TLR2-mediated NF-κB activation in primary screen, TLR2/6 (in words) (TLR2/6): abrogated the TLR2 response of both heterodimers almost completely | cytotoxic effects / cell viability (in words) (HEK-Blue hTLR2 cells): cytotoxic | lowest concentration reducing cell viability (HEK-Blue hTLR2 cells): 50 µM

SMILES: CCOC(=O)c1cccc(NC(=O)c2ccc(O)cc2O)c1 [Compound 1, Ethyl 3‐(2,4‐dihydroxy‐benzamido)benzoate]
TLR2-mediated NF-κB activation in primary screen, TLR2/1 (in words) (TLR2/1): Except for 1, all selected compounds decreased | TLR2-mediated NF-κB activation in primary screen, TLR2/6 (in words) (TLR2/6): Except for 1, all selected compounds decreased

Second part, led by results:

chemical stability / sensitivity to oxidation [1]: instantaneous decomposition
SMILES: CCOC(=O)c1cccc(NC(=O)c2cc(O)c(O)c(O)c2)c1 [Compound 8, ethyl 3‐(3,4,5‐trihydroxy‐benzamido)benzoate]

chemical stability / sensitivity to oxidation [1]: instantaneous decomposition
SMILES: CCOC(=O)c1cccc(NC(=O)c2ccc(O)c(O)c2O)c1 [Compound 7, ethyl 3‐(2,3,4‐trihydroxy‐benzamido)benzoate]

pIC50 (TLR2/1): 4.81 | Pam3CSK4-induced TLR2/1 response (remaining) (TLR2/1): less than 40% | pIC50 (TLR2/6): 4.87 | agonistic TLR2 activity (TLR2): no agonistic activity | chemical stability / sensitivity to oxidation [1]: chemically stable
SMILES: CCOC(=O)c1cccc(NC(=O)c2cc(O)cc(O)c2)c1 [Compound 6, Ethyl 3‐(3,5‐dihydroxy‐benzamido)benzoate]
TLR2-mediated NF-κB activation in primary screen, TLR2/1 (in words) (TLR2/1): abrogated the TLR2 response of both heterodimers almost completely | TLR2-mediated NF-κB activation in primary screen, TLR2/6 (in words) (TLR2/6): abrogated the TLR2 response of both heterodimers almost completely | cytotoxic effects / cell viability (in words) (HEK-Blue hTLR2 cells): nontoxic | lowest concentration reducing cell viability (HEK-Blue hTLR2 cells): > 50 µM | influence on other TLR subtypes (IL-8 secretion) (other TLR subtypes): no influence on other TLR subtypes
